According to patent US11820833B2, “Peptides that inhibit binding of EPCR to its ligand to treat inflammation” (Tel HaShomer Medical Research Infrastructure and Services …, priority 2016, dated 2023):
“Also recorded” adds a separate entry of the source. Non-standard residues stand in square brackets, D forms with d. Residues, ends and D or L forms follow the SMILES beside them. *: point of attachment. Gla = N[C@@H](CC(C(=O)O)C(=O)O)C(=O)O; Tos = Cc1ccc(S(=O)(=O)*)cc1

Key:
[1] = test system: commercial human pool plasma; assay: Coagulation tests (PT, APTT, TT, anti Xa, aPC-resistance) in human pool plasma
Protocol: All coagulation tests as PT (Prothrombin Time), APTT (activated partial thromboplastin time), TT (Thrombin Time), anti Xa, aPC-resistance were carried out in collaboration with the routine coagulation lab in Sheba Medical Center and conducted on a commercial human pool plasma samples.
Coagulation tests were conducted at the Sheba Medical Center (as described in details in the ‘general materials and experimental procedures’ section above) and a commercial pool human plasma was used. PEP6 was applied in various concentrations for injection in vivo and for evaluating the safety and the width of the therapeutic window for treatment.

[2] = test system: Long Term Potentiation (LTP), hippocampal slices; assay: In vitro electrophysiology, Long Term Potentiation in hippocampal slices; set-up: species or system mice; conditions: peptides at 10 μM, HFS 100 Hz 1 second
Protocol: The efficacy of the peptides was tested using in vitro electrophysiology. Here the present inventors tested whether these peptides have similar effects as aPC in enhancing Long Term Potentiation. Briefly, mice (10-12 weeks of age) were rapidly decapitated, the hippocampus was removed, and 400 μm slices were prepared using a vibroslicer. Slices were incubated for 1.5 hours in a humidified, carbogenated (5% CO2 and 95% O2) gas atmosphere at 33±1° C. and were perfused with ACSF [containing (in mm) 124 NaCl, 2 KCl, 26 NaHCO3, 1.24 KH2PO4, 2.5 CaCl2, 2 MgSO4, and 10 glucose, pH 7.4] in a standard interface chamber. Recordings were made with a glass pipette containing 0.75 m NaCl (4 MΩ) placed in the stratum radiatum CA1.
Stimulation was evoked using a Master 8 pulse stimulator (A.M.P.I., Jerusalem, Israel) and was delivered through a bipolar nichrome electrode placed at a side of the recording electrode. LTP was induced by high-frequency stimulation (HFS) consisting of 100 pulses at twice the test intensity, delivered at a frequency of 100 Hz (100 Hz, 1 second). Before applying the tetanic stimulation, baseline values were recorded at a frequency of 0.033 Hz. Responses were digitized at 5 kHz and stored on a computer. Off-line analysis and data acquisition were performed using the LTP Program (Anderson and Collingridge, 2001). Peptides were tested at a concentration of 10 μM.

## Cc1ccc(S(=O)(=O)N[C@@H](CC(C(=O)O)C(=O)O)C(=O)N[C@@H](CCC(=O)O)C(=O)N[C@@H](C)C(=O)N[C@@H](CCCNC(=N)N)C(N)=O)cc1 [Pep6, Tos-{Gla}-EAR-NH2] (Tos-[Gla]EAR-NH2)
[1]
  Effect in APTT (activated partial thromboplastin time) test: small but statistically significant effect
  Effect in PT (Prothrombin Time) test: small but statistically significant effect
[1]; any concentration tested
  Effect on coagulation tests (all conducted tests): either no effect or clinical-irrelevant effect; also recorded: did not affect

## Tos-{Gla}-EAK-NH2 (Tos-[Gla]EAK-NH2; SMILES Cc1ccc(S(=O)(=O)N[C@@H](CC(C(=O)O)C(=O)O)C(=O)N[C@@H](CCC(=O)O)C(=O)N[C@@H](C)C(=O)N[C@@H](CCCCN)C(N)=O)cc1) [Pep5, N-terminal Tosyl, C-terminal amide, γ-carboxylated Glu]
[2]
  Effect on Long Term Potentiation (LTP): enhanced

## Tos-{Gla}-EAK-{Gla}-IF-NH2 (Tos-[Gla]EAK[Gla]IF-NH2; SMILES CC[C@H](C)[C@H](NC(=O)[C@H](CC(C(=O)O)C(=O)O)NC(=O)[C@H](CCCCN)NC(=O)[C@H](C)NC(=O)[C@H](CCC(=O)O)NC(=O)[C@H](CC(C(=O)O)C(=O)O)NS(=O)(=O)c1ccc(C)cc1)C(=O)N[C@@H](Cc1ccccc1)C(N)=O) [Pep7, N-terminal Tosyl, C-terminal amide, γ-carboxylated Glu]
[2]
  Effect on Long Term Potentiation (LTP): enhanced

## Tos-{Gla}-EAR-{Gla}-IF-NH2 (Tos-[Gla]EAR[Gla]IF-NH2; SMILES CC[C@H](C)[C@H](NC(=O)[C@H](CC(C(=O)O)C(=O)O)NC(=O)[C@H](CCCNC(=N)N)NC(=O)[C@H](C)NC(=O)[C@H](CCC(=O)O)NC(=O)[C@H](CC(C(=O)O)C(=O)O)NS(=O)(=O)c1ccc(C)cc1)C(=O)N[C@@H](Cc1ccccc1)C(N)=O) [Pep8, N-terminal Tosyl, C-terminal amide, γ-carboxylated Glu]
[2]
  Effect on Long Term Potentiation (LTP): enhanced
